According to paper PMC7812667 (ACS Medicinal Chemistry Letters, 2020):

Experiment: LogD shake-flask, octanol and water
Assay type: physicochemical
Settings: pH 7.4

Q: For `c1ccc(Cc2c[nH]c3ncc(-c4cnn(C5CCNCC5)c4)cc23)cc1` [Compound 6], which “reduction in logD (versus compound 5)” value is on record?
A: over 1.5 log units
